According to patent US9301951B2 (Ardelyx, Inc., priority 2010, dated 2016):

What was measured:
[1] = test system: Sprague-Dawley rats; assay: In vivo bolus phosphorus challenge (serum phosphate elevation); details: rat; oral; drug dose 30; phosphate bolus 15 min after compound; serum 30 min post bolus
Protocol: By pretreating animals with a low phosphorus diet followed by the subsequent dosing of a phosphorus bolus, serum phosphorus levels were monitored after 30 minutes as a surrogate for intestinal phosphorus absorption. […] The in vivo bolus phosphorus challenge model used here mimics this model in rats.
Male, 7-week-old Sprague-Dawley rats (Charles-River laboratories international, Hollister, Calif.) were allowed to acclimatize for a minimum of 3 days before switching to a synthetic low-phosphorus diet (TD.85010, Harlan Teklad, Madison, Wis.) which contains 0.1% phosphorus and 0.6% calcium. At day 5, testing compounds or vehicle alone (as indicated) were orally administered at the indicated dose in a volume of 5 ml/kg, followed by a bolus gavage of monobasic sodium phosphate (1 mmol in 1 ml) 15 min after compound dosing. Serum was collected via retroorbital bleeding 30 min post phosphate bolus and phosphate levels were determined utilizing an ACE ALERA blood chemistry analyzer (Alfa Wassermann Diagnostic Technologies, West Caldwell, N.J.).
The extent of inhibition by test compounds on the elevation of serum phosphate levels in response to the bolus of phosphorus is shown in Table 12 (data are expressed as % Inhibition, with 6-10 animals per data point). The differences between groups were evaluated by one-way analysis of variance with Dunnett's post hoc tests.

[2] = test system: NaPi2b; assay: Competition with phosphate: Pi uptake assay repeated at 2.1 vs 0.1 mM phosphate; assay type: cell-based; details: potency at 2.1 vs 0.1 mM phosphate
Text: In certain preferred embodiments, the phosphate transport inhibitors of the present invention are not competitive inhibitors with respect to phosphate of Na/phosphate co-transport. In certain other preferred embodiments, the phosphate transport inhibitors of the invention are non-competitive inhibitors. Non-competitive inhibitors maintain their degree of inhibition irrespective of the local phosphate concentration. This feature is an important aspect in providing an efficient blockade of intestinal transport in postprandial state, where the local concentration of dietary phosphate can attain concentration as high as 10 mM. It is believed that competitive inhibitors are too sensitive to local phosphate concentration and unable to block phosphate uptake following a high phosphorus meal. Various methods are available for determining whether a phosphate transport inhibitor is non-competitive or competitive. For example, a phosphate uptake assay can be performed and the IC50 values for a compound at different phosphate concentrations can be determined (e.g., “Enzyme kinetics”, I. Segel, 1975, John-Wiley & Sons, p. 123). IC50 values for non-competitive inhibitors will remain the same or similar with respect to the phosphate concentration, whereas IC50 values for competitive inhibitors will increase (i.e. lose potency) as phosphate concentration increases. […]

Structure (SMILES): O=C(O)CCSCc1cccc(C(=O)Nc2ccc(N3CCCCC3)cc2-c2cc(C(=O)NCc3cccc(C(F)(F)F)c3)ccn2)c1 [Example 1.1, 3-(3-((2-(4-((3-(trifluoromethyl)benzyl)carbamoyl)pyridin-2-yl)-4-(piperidin-1-yl)phenyl)carbamoyl)-benzylthio)propanoic acid]
- % Inhibition of Serum P elevation [1]: 20-30%
- Competitive with respect to Pi? [2]: No
